In patent US5403824A, “Methods for the treatment of osteoporosis” (The Procter & Gamble Company, priority 1993, dated 1995):
Square brackets hold non-standard residues; d marks the D form. Peptide text beside a SMILES is read from it. * marks the point of attachment. tBu = CC(C)(C)*

How the values were obtained:
[1] = system: human subject with postmenopausal osteoporosis or low bone mass; assay: treatment of human subject with osteoporosis, vertebral density by dual-energy photon absorptiometry; assay type: in vivo
Experimental: A human subject weighing about 60 kg (132 lbs), suffering from postmenopausal osteoporosis, is treated by a method of this invention. Specifically, for two years, the enkephalin-degrading enzyme inhibitor DL-3-mercapto-2-benzylpropanoylglycine is administered orally, in a cyclical regimen, where each cycle consists of an active period of 28 days during which a tablet containing 160 mg of said inhibitor is administered each day, followed by a non-active period of 28 days during which the subject receives a daily supplement of calcium (1,000 mg/day), with repeat of cycle.
A human subject weighing about 60 kg (132 lbs), suffering from postmenopausal osteoporosis, is treated by a method of this invention. Specifically, for two years, the compound H-Tyr-D-Ala-Gly-Phe-D-Leu-OH ("DADLE") is administered to the subject, in a cyclical regimen, where each cycle consists of an active period of 28 days during which a solution containing 30 mg of DADLE is administered intravenously every day, followed by a non-active period of 28 days during which the patient receives a daily supplement of calcium (1,000 mg/day), with repeat of cycle.
(§1) A human subject weighing about 60 kg (132 lbs), suffering from postmenopausal osteoporosis, is treated by a method of this invention. Specifically, for two years, an enkephalin of the formula Tyr-D-Cys(S-t-butylthioether)-Gly-Phe-Leu-Thr(O-t-butylether) ("BUBUC") is administered to the subject, in a cyclical regimen, where each cycle consists of an active period of 28 days during which a solution containing 30 mg of BUBUC is intravenously administered each day, followed by a non-active period of 28 days during which the patient receives a daily supplement of calcium (1,000 mg/day), with repeat of cycle.
as §1, with “years, the” for “years, an”, “enkephalin secretagogue Tyr-Arg^1,” for “enkephalin of the formula Tyr-D-Cys(S-t-butylthioether)-Gly-Phe-Leu-Thr(O-t-butylether) ("BUBUC")”, “of Tyr-Arg” for “of BUBUC”, “the subject” for “the patient”, “cycle. […]” for “cycle.”
A human subject weighing about 60 kg (132 lbs), suffering from postmenopausal osteoporosis, is treated by a method of this invention. Specifically, each day for five years, the subject is administered 3 tablets, comprised as follows.
A human subject weighing about 60 kg (132 lbs) is evaluated approximately four years after spontaneous menopause, and is found to have low bone mass. The subject is then treated by a method of this invention to treat osteoporosis. Specifically, once each month for five years, the subject is administered, via intravenous injection, 5 ml of a solution comprised as follows.

[2] = system: Rat osteoblast-like cells (ROS 17/2.8); assay: [3H]-thymidine incorporation, proliferation of osteoblast-like cells; assay type: cell-based; settings: ROS 17/2.8, 18 hrs incubation, 2 hrs pulse
Text: Stimulation of osteoblast-like cell proliferation can be measured according to several art-recognized in vitro models. One such model is described in European Patent Publication No. 384,731, by Rodan et al, published Aug. 29, 1990, which is incorporated herein by reference. (Applicants have modified this method by reducing regent volumes to one-quarter those described and by utilizing Dulbecco's Modified eagle's Medium (DMEM).) In this model, proliferation (division) of, for example, rat osteoblast-like cells (rat osteosarcoma (ROS) cells, rat calvaria cells, etc.) is observed by measuring the amount of radiolabeled thymidine ([^3 H]thymidine) incorporated by these cells. ([^3 H]thymidine is "incorporated" by cellular DNA being synthesized as a result of cell proliferation.) The greater the level of [^3 H]thymidine measured, the greater the amount of proliferation of the osteoblast cells.
More specifically, a test sample (comprised of a test compound and osteoblast-like cells) and a control sample (comprised of only osteoblast-like cells) are pulsed with [^3 H]thymidine. The amount of [^3 H]thymidine incorporated by the cells is measured using a direct beta counter.
Rat osteoblast-like cells (ROS 17/2.8) are plated at 4×10^3 cells/well in a 96-well plate in Dulbecco's Modified eagle's Medium supplemented with 2% (v/v) Fetal Bovine Serum, and incubated for 6 hrs. Control (serum-free) medium and test medium (test sample and serum-free medium) are then added to the cells and this combination is incubated for 18 hrs. The cells are then pulsed with [^3 H]-thymidine (1 μCi/well) for 2 hrs. The medium is then removed, the cells are harvested onto glass fibre filters and the amount of [^3 H]-thymidine (counts per minute per well) incorporated into DNA is then determined using a direct beta counter. Values for control groups are then compared to values for treated groups.
(§2) The compound H-Tyr-D-Ala-Gly-Phe-D-Leu-OH ("DADLE") is screened to determine whether it stimulates proliferation of osteoblast-like cells. […] The medium is then removed, the cells are harvested onto glass fibre filters, and the amount of ^3 H-thymidine (counts per minute per well) incorporated into DNA is determined using a direct beta counter. […]
as §2, with “Tyr-D-Cys(S-t-butylthioether)-Gly-Phe-Leu-Thr(O-t-butylether) ("BUBUC")” for “H-Tyr-D-Ala-Gly-Phe-D-Leu-OH ("DADLE")”

[3] = biological target: T1, delta opioid receptor (Cavia porcellus, UniProt A0A286XTF2); assay: inhibition of [3H]DPDPE binding, method of Goldstein et al.; design: species or system guinea pig; settings: radioligand [3H]DPDPE
T1 construct: A preferred source of delta opioid receptors is guinea pig brain; from tissue; host or cells: guinea pig brain
T1 sequence (A0A286XTF2 1-366): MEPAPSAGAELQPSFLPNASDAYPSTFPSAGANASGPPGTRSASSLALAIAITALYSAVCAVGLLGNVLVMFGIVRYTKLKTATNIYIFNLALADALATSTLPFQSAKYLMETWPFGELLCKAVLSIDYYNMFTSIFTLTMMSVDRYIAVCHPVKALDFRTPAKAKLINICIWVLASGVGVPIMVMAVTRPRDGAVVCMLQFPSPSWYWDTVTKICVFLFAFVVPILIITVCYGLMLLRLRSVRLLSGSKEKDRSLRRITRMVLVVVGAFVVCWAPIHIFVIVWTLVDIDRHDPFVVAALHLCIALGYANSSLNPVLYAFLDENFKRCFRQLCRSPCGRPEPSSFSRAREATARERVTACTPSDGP
Text: Affinity for delta opioid receptors can be measured by any of several art-recognized in vitro models. One such model is described by Goldstein et al., and is discussed above. According to this model, a test compound is screened for its ability to inhibit binding of a delta-selective radiolabeled ligand ("delta-selective radiolabeled ligand" refers to a radiolabeled compound that is known to have selective affinity to delta opioid receptors) to delta opioid receptor binding sites. More specifically, this in vitro model compares test samples (comprising a delta-selective radiolabeled ligand ("hot ligand"); the non-radiolabeled equivalent to the "hot ligand" ("cold ligand"); test compound at varying concentrations in each test sample; and delta opiate receptor material) and a control sample (comprising hot ligand; cold ligand; and delta opiate receptor material).
Following the protocol set forth by Goldstein et al., the samples are assayed for relative radioactivity.
In assessing a compound's in vitro affinity for delta opioid receptors according to the method described by Goldstein et al., the delta-selectiveradiolabeled ligand ("hot ligand") is preferrably [^3 H]Tyr-D-Pen-Gly-Phe-D-Pen-OH ("[^3 H]-DPDPE"). The preferred "cold ligand" is therefore H-Tyr-D-Pen-Gly-Phe-D-Pen-OH ("cold DPDPE" or "DPDPE"). A preferred source of delta opioid receptors is guinea pig brain. […]

[4] = system: osteoblast-like cells; assay: enkephalin secretion from osteoblast-like cells, RIA of immunoreactive enkephalin; assay type: cell-based; settings: 48 hrs incubation
Experimental: In vitro release of enkephalin can be determined using any of several art-recognized in vitro models. One such model is described by Rosen et al., "Regulated Expression of Proenkephalin A in Normal Lymphocytes", 143 J. Immunol. 3703-07 (1989), which is incorporated herein by reference. In this model, "target cells" (preferably bone-derived cells, such as human osteoblast-like cells, rat calvaria cells, rat osteosarcoma cells, etc.) are incubated in tissue culture medium in the presence (test sample) and absence (control sample) of a test agent.
Osteoblast-like cells are incubated in tissue culture medium in the presence (test samples) and absence of the compound Tyr-Arg for 48 hrs. Peptides are extracted from packed cells by homogenization in 10 volumes of 0.2M HCl, heated to 100° C. for 3 min. and centrifuged at 15,000×g for 30 min. at 4° C. An aliquot of the resulting supernatant is purified on a C18 octadecyl Ampere minicolumn using a non-polar extraction procedure as recommended by the manufacturer of the columns. Another portion of the supernatant is lyophilized and reconstituted in 1.0 ml of 50 mM Tris-HCl (pH 8.0), 2 mM CaCl2 containing 20 µg/ml trypsin L-p-tosylamino-2-phenylethyl chloromethyl ketone. After trypsin digestion (2 hr at […]), samples are heated to 100° C. for 20 min., cooled and then treated with carboxypeptidaseB (0.2 μg/ml) for 1 hr. at 37° C. […]

[5] = 30 mg intravenously daily (substitutes at comparable levels), 28 days active / 28 days calcium, two years

CC(C)C[C@H](NC(=O)[C@H](Cc1ccccc1)NC(=O)CNC(=O)[C@@H](CSC(C)(C)C)NC(=O)[C@@H](N)Cc1ccc(O)cc1)C(=O)N[C@H](C(=O)O)[C@@H](C)OC(C)(C)C [BUBUC, Tyr-D-Cys(S-t-butylthioether)-Gly-Phe-Leu-Thr(O-t-butylether)] (H-Y[dC](tBu)GFLT(tBu)-OH)
density of vertebrae / bone mass [1, 5]: an increase in bone mass
density of vertebrae / bone mass ([1]; Example 8: 5 ml of 30.0 mg/ml solution i.v. once each month for five years): no significant loss in bone mass has occurred
[3H]-thymidine incorporation (proliferation) vs control [2]: significantly stimulated proliferation of the osteoblast-like cells
in vitro delta opioid receptor affinity (IC50 ≤1000 times the IC50 of non-radiolabeled DPDPE) [3]: significant in vitro delta opioid receptor affinity

N=C(N)NCCC[C@H](NC(=O)[C@@H](N)Cc1ccc(O)cc1)C(=O)O [Tyr-Arg]
immunoreactive enkephalin, enkephalin secretion vs control [4]: stimulates enkephalin secretion by osteoblast-like cells
density of vertebrae / bone mass [1, 5]: an increase in bone mass
[3H]-thymidine incorporation (proliferation) vs control [2]: significantly stimulated proliferation of the osteoblast-like cells
